Experimental data reported in patent publication US20250084080A1, “CRYSTALLINE AND SALT FORMS OF AN NLRP3 INHIBITOR” (BioAge Labs, Inc., priority 2023, published 2025).
In brackets after ≈: the same amount, converted by molar mass.

What was measured:
Format in all cases: physicochemical
[1] = Solubility at 37° C. in buffers and biorelevant media, XRPD of residual solid; settings: for solubility at 2 h / solubility at 24 h: thermodynamic from solid
Summary of the method: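 Solids equivalent to 10 mg anhydrous free form were stirred in 5 mL of each medium (pH 1.2 HCl, pH 4.5 acetate, pH 6.8 phosphate, water, FaSSGF, FaSSIF-v1, FeSSIF-v1, HPMC/Pluronic in acetate) at 37 °C, 400 rpm. Sampled at 2 h and 24 h; supernatant analyzed by HPLC plus pH, 24 h residual solid by XRPD.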

[2] = Competitive equilibration and water activity experiments; settings: water activity 0 to 0.4 at 5° C. and 0 to 0.6 at 25° C., equilibration 5 days
Method: Relative stability of the hydrate Pattern A and the anhydrate Pattern B was investigated by competitive equilibration and water activity experiments at 5° C. and 25° C.

[3] = Bulk stability (solid state, 1 week; HPLC, XRPD, IC, color); parameters: key to CL (color): A: no change of color; B: slight discoloration; C: medium discoloration; D: strong discoloration; settings: for Bulk (HPLC) Purity / CL (color): Solid state
Method: Bulk stability of free form Pattern B was evaluated at 25° C./92.5% RH in an open container, at 40° C./75% RH in an open container and at 60° C. in a tight container over 1 week.

[4] = Hygroscopicity by dynamic vapor sorption (DVS) at 25° C.; settings: for Desorp. (%) / Sorp. (%): DVS 25° C.
Summary of the method: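 About 5–10 mg sample was cycled 40-0-95-0-40% RH in 10% steps at 25 °C with water vapour. Equilibrium criterion was 0.002 %/min dm/dt, with a minimum 60 min stability duration and a maximum 360 min per stage.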

[5] = aqueous buffer, pH 4.5 acetate buffer (50 mM), 37° C.
[6] = aqueous buffer, pH 6.8 phosphate buffer (50 mM), 37° C.
[7] = aqueous with cosolvent or surfactant or cyclodextrin, 2% HPMC + 1% Pluronic F68 in pH 4.5 acetate buffer (50 mM), 37° C.
[8] = fassgf or other biorelevant, FaSSGF, pH 1.6, 37° C.
[9] = simulated gastric fluid, pH 1.2 HCl buffer, 37° C.
[10] = 25° C./92.5% RH open, 40° C./75% RH open, 60° C. tight container

## CCOc1cc(C(=O)N(C)Cc2cnc(CO)c3cn[nH]c23)ccc1-c1cc(F)cc(F)c1 [Free form Pattern A, 2-ethoxy-3′,5′-difluoro-N-((4-(hydroxymethyl)-1H-pyrazolo[4,3-c]pyridin-7-yl)methyl)-N-methyl-[1,1′-biphenyl]-4-carboxamide]
[1]; 2% HPMC + 1% Pluronic F68 in pH 4.5 acetate buffer (50 mM), 37° C.
  pH of supernatant at 24 h: (4.6)
[1]; FaSSGF, pH 1.6, 37° C.
  pH of supernatant at 24 h: (1.6)
[1]; FaSSIF-v1, pH 6.5, 37° C.
  pH of supernatant at 24 h: (6.5)
  solubility at 2 h: 0.0145 mg/mL (≈ 32 µM)
  solubility at 24 h: 0.0177 mg/mL (≈ 39.1 µM)
[1]; FeSSIF-v1, pH 5.0, 37° C.
  pH of supernatant at 24 h: (5.0)
  solubility at 2 h: 0.142 mg/mL (≈ 314 µM)
  solubility at 24 h: 0.169 mg/mL (≈ 372 µM)
[1]; Water, 37° C.
  pH of supernatant at 24 h: (6.3)
  solubility at 2 h: 0.0056 mg/mL (≈ 12.4 µM)
  solubility at 24 h: 0.0046 mg/mL (≈ 10.2 µM)
[1]; [5]
  solubility at 2 h: 0.0144 mg/mL (≈ 31.8 µM)
  solubility at 24 h: 0.0137 mg/mL (≈ 30.3 µM)
[1]; [6]
  solubility at 2 h: 0.0047 mg/mL (≈ 10.4 µM)
  solubility at 24 h: 0.0043 mg/mL (≈ 9.5 µM)
[1]; [7]
  solubility at 2 h: 0.0244 mg/mL
  solubility at 24 h: 0.0343 mg/mL
[1]; [8]
  solubility at 2 h: 0.746 mg/mL (≈ 1650 µM)
  solubility at 24 h: 0.616 mg/mL (≈ 1360 µM)
[1]; pH 1.2 HCl buffer, 37° C.
  pH of supernatant at 24 h: (1.2)
[1]; pH 4.5 acetate buffer (50 mM), 37° C.
  pH of supernatant at 24 h: (4.5)
[1]; pH 6.8 phosphate buffer (50 mM), 37° C.
  pH of supernatant at 24 h: (6.8)
[1]; [9]
  solubility at 2 h: 0.425 mg/mL (≈ 940 µM)
  solubility at 24 h: 0.402 mg/mL (≈ 888 µM)
[2]
  Form conversion: converted to anhydrate Pattern B
[3]; [10]
  Bulk stability, chemical and physical: chemically and physically stable
  Degradation by HPLC: no obvious degradation
  Form change by XRPD: no form change
[3]; 25° C./92.5% RH, open
  Bulk (HPLC) Purity: 97.9%
  CL (color): A
[3]; 40° C./75% RH, open
  Bulk (HPLC) Purity: 97.7%
  CL (color): A
[3]; 60° C., closed
  Bulk (HPLC) Purity: 97.8%
  CL (color): A
[4]; 0% RH, 1st desorption
  Desorp. (%): 0.01%
[4]; 0% RH, 2nd sorption
  Sorp. (%): 0.01%
[4]; 10% RH, 1st desorption
  Desorp. (%): 3.59%
[4]; 10% RH, 2nd sorption
  Sorp. (%): 0.09%
[4]; 20% RH, 1st desorption
  Desorp. (%): 3.74%
[4]; 20% RH, 2nd sorption
  Sorp. (%): 3.45%
[4]; 30% RH, 1st desorption
  Desorp. (%): 3.79%
[4]; 30% RH, 2nd sorption
  Sorp. (%): 3.78%
[4]; 40% RH, 1st desorption
  Desorp. (%): 3.83%
[4]; 40% RH, 1st sorption
  Sorp. (%): 3.87%
[4]; 40% RH, 2nd desorption
  Desorp. (%): 3.83%
[4]; 40% RH, 2nd sorption
  Sorp. (%): 3.82%
[4]; 50% RH, 1st desorption
  Desorp. (%): 3.93%
[4]; 50% RH, 1st sorption
  Sorp. (%): 3.90%
[4]; 50% RH, 2nd desorption
  Desorp. (%): 3.92%
[4]; 50% RH, 2nd sorption
  Sorp. (%): 3.87%
[4]; 60% RH, 1st desorption
  Desorp. (%): 4.00%
[4]; 60% RH, 1st sorption
  Sorp. (%): 3.94%
[4]; 60% RH, 2nd desorption
  Desorp. (%): 3.99%
[4]; 60% RH, 2nd sorption
  Sorp. (%): 3.93%
[4]; 70% RH, 1st desorption
  Desorp. (%): 4.07%
[4]; 70% RH, 1st sorption
  Sorp. (%): 4.01%
[4]; 70% RH, 2nd desorption
  Desorp. (%): 4.06%
[4]; 70% RH, 2nd sorption
  Sorp. (%): 4.00%
[4]; 80% RH, 1st desorption
  Desorp. (%): 4.17%
[4]; 80% RH, 1st sorption
  Sorp. (%): 4.12%
[4]; 80% RH, 2nd desorption
  Desorp. (%): 4.15%
[4]; 80% RH, 2nd sorption
  Sorp. (%): 4.11%
[4]; 90% RH, 1st desorption
  Desorp. (%): 4.35%
[4]; 90% RH, 1st sorption
  Sorp. (%): 4.33%
[4]; 90% RH, 2nd desorption
  Desorp. (%): 4.33%
[4]; 90% RH, 2nd sorption
  Sorp. (%): 4.30%
[4]; 95% RH, 1st desorption
  Desorp. (%): 4.61%
[4]; 95% RH, 1st sorption
  Sorp. (%): 4.61%
[4]; 95% RH, 2nd desorption
  Desorp. (%): 4.58%
[4]; 95% RH, 2nd sorption
  Sorp. (%): 4.58%
[4]; DVS at 25° C.
  Water absorbed from 40% RH to 80% RH: It absorbed 0.3%
  XRPD after DVS test: No form change
